# Assay results taken from patent publication US20070155023A1, “Identification of proteins and other species with emissive chelating label” (Massachusetts Institute of Technology, priority 2005, published 2007).
# Key:
# [1] = Photophysical properties (absorbance, emission, quantum yield) in pH 7 buffer; assay type: physicochemical; conditions: for Quantum yield Φ: no metal ion, pH 7, 22° C., relative to fluorescein
# From the text: General Procedure. Acetonitrile (MeCN) was dried over 3 Å molecular sieves. Triethylamine (Et3N) and chloroform (CHCl3) were purchased from Aldrich and used as received. 6-Carboxy-2′,7′-dichlorofluorescein-3′,6′-diacetatesuccinimidyl ester was synthesized by a method previously developed in this laboratory. ^1N,N-Bis(carboxymethyl)-L-lysine hydrate was purchased from Fluka and used as received. ^1H and ^13C NMR spectra were acquired on either a Varian 300 Mhz or a Varian 500 MHz spectrometer and referenced to internal standards. IR spectra were collected on an Avatar 360 FT-IR instrument. Melting points were measured with a Mel-Temp apparatus. Fluorescence spectra were obtained on a Hitachi F-3020 spectrofluorimeter, and UV/vis spectra were acquired on a Cary 1E spectrophotometer. Low-resolution mass spectra were collected on an Agilent 1100 Series LC/MSD system. High-resolution mass spectra were provided by staff at the MIT Department of Chemistry Instrumentation Facility. Preliminary cell images were acquired with a Nikon Eclipse TS100 microscope equipped with an RT Diagnostics camera with illumination provided by a Chiu Mercury 100 W lamp. Magnification was 20×. The cell imaging system was operated with Spot Advanced software. Fluorescence images were obtained using a FITC-HYQ filter cube (excitation 460-500 nm, bandpass 510-560 nm). Select cell images were acquired with a LSM510 confocal microscope.
# Aqueous solutions were prepared with Millipore water. A 2.25 mM stock solution of NTA-DCF in DMSO was prepared, separated into aliquots, stored at −25° C., and thawed in the dark immediately before use. All spectroscopic data were collected in a pH 7 buffer solution of 50 mM piperazine-N,N′-bis(2-ethanesulfonic acid) (PIPES) and 100 mM KCl unless noted otherwise. Solution magnetic susceptibilities were measured by the Evan's method. Spectroscopic data were taken at room temperature (22° C.). Quantum yields were measured relative to fluorescein in 0.1 M NaOH (Φ=0.95).
# The photophysical properties of the signaling entity were measured to observe the effect that introduction of the NTA functionality may have on the absorbance and/or emission of the signaling entity.
# [2] = test system: HeLa cells; assay: Cell permeability of living HeLa cells; assay type: in vitro ADME; conditions: alone or as its Ni^2+ adduct, 5 μM, 5 min, 22° C., PBS
# Procedure: (§1) The cells as described in Example 3 were used for labeling with NTA-DCF two days after transfection with plasmid. Immediately prior to labeling, the cells were washed once with PBS. A stock solution of complexed Ni^2+-NTA-DCF was prepared by mixing 2.5 mM NiCl2 and 2.5 mM NTA-DCF in a 1:1 ratio in PBS. HeLa and HEK 293-T cells were each washed once with PBS, then incubated with 5 μM Ni^2+-NTA-DCF for 5 min at 22° C. in PBS. The cells were subsequently rinsed twice with PBS, fixed with 4% paraformaldehyde for 5 min, washed with two portions of PBS, and mounted using Vectashield anti-fading reagent (Vector Labs). As a negative control, a cell sample was incubated with NTA-DCF without added Ni^2+. In order to gauge the reversibility of staining, 5 mM EDTA was added to a sample of cells stained with 5 μM NTA-DCF and 5 μM Ni^2+. […] This impermeability can be exploited to label and image selectively proteins on the extracellular side of the cell membrane. The NTA-DCF composition was premixed with an equimolar concentration of NiCl2, and the mixture was added to a sample containing either HeLa or HEK 293-T cells.
# [3] = test system: HEK 293-T cells; assay: Cell permeability of living HEK 293-T cells; assay type: in vitro ADME; conditions: alone or as its Ni^2+ adduct, 5 μM, 5 min, 22° C., PBS
# Procedure: as §1
# [4] = test system: polyhistidine sequences on HeLa cells transfected with pDisplay-6×His; assay: Fluorescent labeling of extracellular His6 tags on transfected HeLa cells (confocal microscopy); assay type: cell-based
# Procedure: (§2) This example describes the incorporation of an affinity tag within a target analyte (e.g., a cell). A polyhistidine affinity tag was incorporated within a plasmid, which was then used for transfection with the target cell. pDisplay-6×His was constructed by introduction of an oligonucleotide encoding for a His6 tag (5′-CATCATCATCATCATCAT-3′) into a pDisplay plasmid (Invitrogen) digested with BglII and SalI.
# (§3) Both HeLa and HEK 293-T cells were cultured in Dulbecco's Modified Eagle Medium (DMEM) supplemented with 10% fetal calf serum (FCS, Invitrogen), glutamine (2 mM), Penicillin (100 units/mL) and Streptomycin (100 μg/mL). The cells were passed and plated on 18 mm glass coverslips coated with 0.2% gelatin 36 hours before transfection. […]
# (§4) The fluorescently-labeled cells may be monitored by confocal microscopy. Confocal images of cells (NTA-DCF staining and mRFP fluorescence) were obtained with a Zeiss LSM510 microscope equipped with a 100× objective. […] Images of cells stained with Hoechst 33285 were obtained with a Zeiss Axioscope fluorescence microscope equipped with a 40× objective and a Hamamatsu digital camera. […]
# (§5) A metal chelator was added to observe the effect on binding of NTA-DCF probe to the target cell. […] In the absence of EDTA or a similar metal scavenging agent, the label-protein construct persisted for at least 20 min after washing, but its stability has not yet been fully assessed.
# [5] = test system: polyhistidine sequences on HEK 293-T cells transfected with pDisplay-6×His; assay: Fluorescent labeling of extracellular His6 tags on transfected HEK 293-T cells (confocal microscopy); assay type: cell-based
# Procedure: as §2, §3, §4, §5
# [6] = test system: cell cultures (nuclei stained with Hoechst 33285); assay: Nuclear morphology study of NTA-DCF toxicity; assay type: cell-based
# Procedure: Cells were incubated with either NTA-DCF or PBS for five min, washed twice with PBS, and fixed for 5 min with 4% p-formaldehyde. After fixation, the cells were rinsed four times with PBS (5 min each wash). Hoechst 33285 dye (Molecular Probes) was added to the second rinse such that the final concentration reached 2 μg/ml.
# [7] = pDisplay-6×His, premixed with equimolar NiCl2
"Quantum yield Φ ([1]; 50 mM PIPES, 100 mM KCl)",Emission λmax ([1]; pH 7 buffer) [nm],"Decrease in fluorescence emission upon addition of NiCl2 ([1]; 50 mM PIPES, 100 mM KCl, pH 7.0, FIG. 2) [%]","Quantum yield Φ after chelation of a paramagnetic metal ion ([1]; after chelation of Ni^2+, relative to fluorescein in 0.1 M NaOH)",Extinction coefficient ε ([1]; at 504 nm) [M⁻¹ cm⁻¹],Absorption band ([1]; pH 7 buffer) [nm],Entry into cells [2],Entry into cells [3],melting point,Structure (SMILES),"Binding of the probe when Ni^2+ is unavailable ([4]; 5 μM NTA-DCF without NiCl2, 5 min, FIG. 4B)","Fluorescent labeling of polyhistidine sequences on extracellular plasma membrane surface [4, 7]","Binding of the probe when the polyhistidine tag is not expressed ([5]; pDisplay without His6 tags, 5 μM NTA-DCF and 5 μM NiCl2, FIG. 5B)","Fluorescent labeling of polyhistidine sequences on extracellular plasma membrane surface [5, 7]","Toxicity (nuclear morphology study) ([6]; 5-μM dose, five min incubation, FIG. 7)","Change of size and shape of nuclei ([6]; addition of NTA-DCF, five min, Hoechst staining)"
0.88,526,,,,,,,,"O=C1OC2(c3cc(Cl)c(O)cc3Oc3cc(O)c(Cl)cc32)c2ccccc21 [2′,7′-dichlorofluorescein, reference compound]",,,,,,
0.78,527,5,0.72,86000,504,not enter,not enter,182 °C (dec.),"O=C(O)CN(CC(=O)O)C(CCCCNC(=O)c1ccc(C(=O)O)c(-c2c3cc(Cl)c(=O)cc-3oc3cc(O)c(Cl)cc23)c1)C(=O)O (centres unmarked) [NTA-DCF, N-[5-(Bis-carboxymethyl-amino)-5-carboxy-pentyl]-2-(2,7-dichloro-6-hydroxy-3-oxo-3H-xanthen-9-yl)-terephthalamic acid]",blocked,fluorescently label,blocked,fluorescently label,not toxic,Neither the size nor shapes of the nuclei change
